Results as given in PubChem BioAssay (NCI).
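Following 48 hours of exposure in 96-well plates, responses at five concentrations were used to interpolate endpoints linearly. TGI: concentration producing complete growth inhibition.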

Assays:
Test in all cases: inhibition of tumour cell growth, NCI panel, 48 h
[1] = tested on: 786-0 renal
[2] = tested on: A498 renal
[3] = tested on: A549 NSCLC
[4] = tested on: ACHN renal
[5] = tested on: BT-549 breast
[6] = tested on: CAKI-1 renal
[7] = tested on: CCRF-CEM leukemia
[8] = tested on: COLO 205 colon
[9] = tested on: DU-145 prostate
[10] = tested on: EKVX NSCLC
[11] = tested on: HCC-2998 colon
[12] = tested on: HCT-116 colon
[13] = tested on: HL-60(TB) leukemia
[14] = tested on: HOP-92 NSCLC
[15] = tested on: HS 578T breast
[16] = tested on: HT29 colon
[17] = tested on: IGROV1 ovarian
[18] = tested on: K-562 leukemia
[19] = tested on: KM12 colon
[20] = tested on: M14 melanoma
[21] = tested on: MALME-3M melanoma
[22] = tested on: MCF7 breast
[23] = tested on: MDA-MB-231 breast
[24] = tested on: MDA-MB-435
[25] = tested on: MDA-N
[26] = tested on: MOLT-4 leukemia
[27] = tested on: NCI-H226 lung
[28] = tested on: NCI-H23 lung
[29] = tested on: NCI-H460 lung
[30] = tested on: NCI/ADR-RES ovarian
[31] = tested on: OVCAR-3 ovarian
[32] = tested on: OVCAR-5 ovarian
[33] = tested on: OVCAR-8 ovarian
[34] = tested on: PC-3 prostate
[35] = tested on: RPMI-8226 leukemia
[36] = tested on: RXF 393 renal
[37] = tested on: SF-268 CNS
[38] = tested on: SF-295 CNS
[39] = tested on: SF-539 CNS
[40] = tested on: SK-MEL-5 melanoma
[41] = tested on: SK-OV-3 ovarian
[42] = tested on: SN12C renal
[43] = tested on: SNB-19 CNS
[44] = tested on: SNB-75 CNS
[45] = tested on: SR leukemia
[46] = tested on: T-47D breast
[47] = tested on: TK-10 renal
[48] = tested on: U251 CNS
[49] = tested on: UACC-257 melanoma
[50] = tested on: UACC-62 melanoma
[51] = tested on: UO-31 renal

Compound: O=C1c2ccccc2C(=O)c2c1sc1nc3ccccc3n21
- TGI [1]: 4.46 µM
- TGI [2]: 23.3 µM
- TGI [3]: 25.1 µM
- TGI [4]: 6.27 µM
- TGI [5]: 3.45 µM
- TGI [6]: 4.27 µM
- TGI [7]: 5.48 µM
- TGI [8]: 3.61 µM
- TGI [9]: 3.13 µM
- TGI [10]: 4.6 µM
- TGI [11]: 3.79 µM
- TGI [12]: 3.25 µM
- TGI [13]: > 100 µM
- TGI [14]: 74.1 µM
- TGI [15]: 0.0525 µM
- TGI [16]: 13.8 µM
- TGI [17]: 6.34 µM
- TGI [18]: 5.09 µM
- TGI [19]: 3.91 µM
- TGI [20]: 3.15 µM
- TGI [21]: 1.6 µM
- TGI [22]: 3.84 µM
- TGI [23]: 9.12 µM
- TGI [24]: 4.37 µM
- TGI [25]: 3.49 µM
- TGI [26]: 4.89 µM
- TGI [27]: 21.2 µM
- TGI [28]: 3.74 µM
- TGI [29]: 3.66 µM
- TGI [30]: 4.7 µM
- TGI [31]: 9.34 µM
- TGI [32]: 4.28 µM
- TGI [33]: 3.82 µM
- TGI [34]: 6.79 µM
- TGI [35]: 5.26 µM
- TGI [36]: 3.31 µM
- TGI [37]: 3.9 µM
- TGI [38]: 3.04 µM
- TGI [39]: 3.81 µM
- TGI [40]: 43.3 µM
- TGI [41]: 19.1 µM
- TGI [42]: 2.85 µM
- TGI [43]: 4.42 µM
- TGI [44]: 46.1 µM
- TGI [45]: > 100 µM
- TGI [46]: 9.02 µM
- TGI [47]: 12.7 µM
- TGI [48]: 9.37 µM
- TGI [49]: 3.64 µM
- TGI [50]: 3.51 µM
- TGI [51]: 3.89 µM
